From patent US20260167706A1, “ANTI-ADRENOMEDULLIN (ADM) ANTIBODY OR ANTI-ADM ANTIBODY FRAGMENT OR ANTI-ADM NON-IG SCAFFOLD FOR USE IN THERAPY OR PREVENTION OF SHOCK” (ADRENOMED AG, priority 2022, published 2026)
Where two headings read alike, the source gives them in different places.

Key:
endotoxemic rats = conditions: pre-treatment; cited from earlier work
[1] = tested on: subjects of phase I study; conditions: cited from earlier work
[2] = tested on: mice with CLP-induced sepsis; conditions: pre-treatment, cited from earlier work
[3] = tested on: patients with septic shock and elevated adrenomedullin; test: AdrenOSS-2 phase II clinical trial, mortality versus placebo; type: in vivo, human
[4] = tested on: patients with septic shock and elevated adrenomedullin; test: as above; type: in vivo, human; conditions: for all-cause mortality compared to the placebo arm: 28 days
Excerpt: AdrenOSS-2 is a double-blind, placebo-controlled, randomized, multicenter, proof of concept and dose-finding phase II clinical trial to investigate the safety, tolerability and efficacy of the N-terminal ADM antibody named Adrecizumab in patients with septic shock and elevated adrenomedullin (Geven et al. BMJ Open 2019; 9:e024475). In total, 301 patients with septic shock and bio-ADM concentration >70 pg/mL were randomized (2:1:1) to treatment with a single intravenous infusion over approximately 1 hour with either placebo (n=152), adrecizumab 2 ng/kg (n=72) or adrecizumab 4 ng/kg (n=77). All-cause mortality within 28 (90) days after inclusion was 25.8% (34.8%). Mean age was 68.4 years and 61% were male. For the per protocol analysis, n=294 patients remained eligible, and 14-day all-cause mortality rate was 18.5%.
To validate the findings from example 10 and for proof of concept, the different lower thresholds for DPP3 at baseline (day 1) were assessed for efficacy of the anti-ADM antibody (Adrecizumab) therapy in the septic shock population with high bio-ADM from the AdrenOSS-2 study cohort and patients with a DPP3 plasma value above the different lower thresholds were excluded from the analyses. Efficacy of the anti-bio-ADM antibody therapy was specifically assessed to what concerns the mortality endpoint in the placebo and treated arms.
The DPP3 plasma levels in septic shock with high bio-ADM (above […]) patients (n=298) at baseline and in the following 144 h were statistically analysed with the aim of determining a DPP3 threshold at baseline to assess anti-ADM antibody therapy efficacy. Patients above the respective DPP3 plasma thresholds were excluded from the analyses. Different DPP3 plasma concentration thresholds have been applied for 28-day all-cause mortality evaluation using Kaplan-Meier plots comparing anti-ADM antibody therapy vs. placebo. The log-rank test was chosen for showing differences in mortality rates among treatment groups. Hazard ratios (HR) were calculated for each DPP3 plasma concentration threshold to estimate the reduction in mortality risk imposed by anti-ADM antibody therapy relative to placebo.
The different thresholds for DPP3 levels at baseline (day 1) were further used for subgroup analyses for 28-day all-cause mortality evaluation using Kaplan-Meier plots in the treated and placebo arms comparing anti-ADM antibody therapy (Adrecizumab) vs. placebo. The DPP3 plasma concentration thresholds at baseline used were 50 ng/ml and 30 ng/ml.

Substance: Adrecizumab: humanized N-terminal anti-ADM antibody; heavy chain SEQ ID NO: 32, light chain SEQ ID NO: 33
- renal vascular leakage (endotoxemic rats): attenuated
- serious adverse events [1]: no serious adverse events were observed
- renal vascular leakage ([2]; mice with CLP-induced sepsis): attenuated
- 7-day survival ([2]; repeated dose administration (control 0%)): 40%
- 7-day survival ([2]; single dose administration (control 10%)): 50%
- HR for 14-day mortality ([3]; elevated DPP3 above 50 ng/mL): 1.69
- HR for 14-day mortality ([3]; pre-dose DPP3 <40): 0.385
- HR for 14-day mortality ([3]; pre-dose DPP3 <50 (ng/mL)): 0.426
- HR for 14-day mortality ([3]; pre-dose DPP3 <60): 0.449
- HR for 14-day mortality ([3]; pre-dose DPP3 <70): 0.546
- HR for 14-day mortality ([3]; pre-dose DPP3 <90): 0.606
- all-cause mortality compared to the placebo arm ([4]; DPP3 below 30 ng/ml (n=195)): significantly reduced
- all-cause mortality compared to the placebo arm ([4]; DPP3 below 50 ng/ml): lower than the placebo arm
- all-cause mortality compared to the placebo arm ([4]; DPP3 below 50 ng/ml at baseline and continuously low during the next 144h): significantly lower
- HR, 28-day all-cause mortality relative to placebo ([4]; DPP3 threshold at baseline 22 ng/ml): 0.258
- HR, 28-day all-cause mortality relative to placebo ([4]; DPP3 threshold at baseline 30 ng/ml): 0.309
- HR, 28-day all-cause mortality relative to placebo ([4]; DPP3 threshold at baseline 40 ng/ml): 0.568
- HR, 28-day all-cause mortality relative to placebo ([4]; DPP3 threshold at baseline 50 ng/ml): 0.606
